The source made the active and inactive calls.
How the values were obtained:
[1] = molecular target: T1, Oxysterols receptor LXR-beta (Homo sapiens, UniProt P55055); type: functional, cell-based;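 further: agonist activity at LXR measured by a cell-based luminescence readout across a dose range, run as a counterscreen for daf-12 agonists; HEK293 cells with Gal4-LXR fusion and GAL4-driven luciferase reporter; potency for activation of Gal4-LXR reporter so compounds are agonists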
T1 sequence (P55055 whole entry): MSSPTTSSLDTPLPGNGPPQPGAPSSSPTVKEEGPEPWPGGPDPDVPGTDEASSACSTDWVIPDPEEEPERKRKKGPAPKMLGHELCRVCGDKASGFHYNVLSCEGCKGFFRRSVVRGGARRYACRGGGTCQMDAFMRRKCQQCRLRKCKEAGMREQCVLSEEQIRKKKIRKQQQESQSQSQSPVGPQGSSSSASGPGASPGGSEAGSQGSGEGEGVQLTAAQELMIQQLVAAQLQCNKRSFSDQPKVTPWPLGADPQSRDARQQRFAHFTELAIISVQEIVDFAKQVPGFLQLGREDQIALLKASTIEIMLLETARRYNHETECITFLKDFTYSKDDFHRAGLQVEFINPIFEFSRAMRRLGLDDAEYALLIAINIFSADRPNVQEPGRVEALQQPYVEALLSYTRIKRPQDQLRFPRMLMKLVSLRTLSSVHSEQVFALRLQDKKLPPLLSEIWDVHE

[2] = molecular target: T2, Rac GTPase-activating protein 1 (Homo sapiens, UniProt Q9H0H5); assay: blockers of MgcRacGAP-driven Rac1 GTP hydrolysis – biochemical, ADP Hunter fluorescence, primary and confirmatory, confirmation (AID 624330); type: functional
T2 sequence (Q9H0H5 whole entry): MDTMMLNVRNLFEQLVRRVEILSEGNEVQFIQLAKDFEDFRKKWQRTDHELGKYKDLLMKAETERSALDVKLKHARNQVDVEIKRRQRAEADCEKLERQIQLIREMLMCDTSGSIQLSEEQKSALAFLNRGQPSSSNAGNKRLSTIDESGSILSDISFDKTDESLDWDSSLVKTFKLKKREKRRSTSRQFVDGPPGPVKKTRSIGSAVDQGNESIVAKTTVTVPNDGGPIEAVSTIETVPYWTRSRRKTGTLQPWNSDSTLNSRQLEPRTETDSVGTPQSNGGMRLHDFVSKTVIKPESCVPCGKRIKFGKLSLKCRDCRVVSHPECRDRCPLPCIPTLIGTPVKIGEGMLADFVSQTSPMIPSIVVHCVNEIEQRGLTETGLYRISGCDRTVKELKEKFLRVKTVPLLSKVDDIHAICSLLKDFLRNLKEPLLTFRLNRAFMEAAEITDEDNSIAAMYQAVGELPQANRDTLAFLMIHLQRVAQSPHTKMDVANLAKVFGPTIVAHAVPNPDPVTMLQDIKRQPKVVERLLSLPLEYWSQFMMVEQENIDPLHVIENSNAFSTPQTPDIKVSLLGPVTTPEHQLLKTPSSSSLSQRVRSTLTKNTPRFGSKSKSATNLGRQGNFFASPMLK

[3] = viability loss in HeLa cells – cytotoxicity control for MgcRacGAP inhibitor project, dose response (AID 624300); type: functional
[4] = cytotoxicity in HEK293 background cells – cell-based, dry powder, set 2, counter-screen for EBV LMP1 inhibitor project, dose response (AID 624374); type: functional
A549 = assay: viability loss in A549 cells – cell-based, plate reader, cherry-pick samples, cytotoxicity control, dose response (AID 687028); type: functional; conditions: Homo sapiens
[5] = molecular target: Eukaryotic translation initiation factor 4E (Mus musculus, UniProt P63073); assay: blockers of eIF4G binding by eIF4E – biochemical, TR-FRET, dose response (AID 855); type: functional;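 further: potency for disrupting eIF4E binding to eIF4GI seen as loss of FRET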
[6] = molecular target: Luciferin 4-monooxygenase (Photinus pyralis, UniProt P08659); assay: inhibition of purified Photinus pyralis luciferase – biochemical, luminescence, dose response (AID 1891)
[7] = blockers of bursicon-stimulated LGR2 cAMP reporter – cell-based, HEK293, CRE-luciferase reporter, cherry pick, set 2, dose response (AID 743343); type: functional;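 further: transfected cells were stimulated with diluted bursicon conditioned medium after compound addition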
[8] = viability loss in HEK293 cells – cell-based, plate reader, cherry-picked samples, cytotoxicity control, dose response (AID 743446); type: functional
[9] = toxicity toward HepG2 liver cells – cell-based, plate reader, cherry-pick, antagonist series, cytotoxicity control, dose response (AID 743416); type: functional
[10] = A549 cell cytotoxicity, dose response, cytotoxicity control, plate reader, cherry-pick, antagonist series (AID 743412); type: functional, cell-based
[11] = Luminescence Cell-Based Dose Confirmation HTS to Identify Inhibitors of Platelet Dense Granule Release. [Related pubchem assays: 1663 (Primary HTS), 1678 (Summary of Project)]; type: functional
[12] = blockade of melanocortin 4 receptor signaling – cell-based, plate reader, cherry pick, counter-screen for LGR2 antagonist project, dose response (AID 743444); type: functional;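 further: transfected HEK 293 cells stimulated with alpha-MSH peptide; potency of inhibitors of the alpha-MSH evoked signal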
[13] = molecular target: Long-chain-fatty-acid--AMP ligase FadD28 (Mycobacterium tuberculosis, UniProt P9WQ59); assay: Fluorescence polarization aasay to screen for inhibitors that compete for the binding of FadD28 to a bisubstrate Measured in Biochemical System Using Plate Reader - 2147-01_Inhibitor_Dose_CherryPick_Activity.; type: functional, Mycobacterium tuberculosis H37Rv
cells [14] = assay: cells
[15] = molecular target: T3, Methionyl-tRNA synthetase, putative (Trypanosoma brucei brucei, UniProt Q38C91); type: functional, Trypanosoma brucei brucei strain 927/4 GUTat10.1
T3 sequence (Q38C91 whole entry): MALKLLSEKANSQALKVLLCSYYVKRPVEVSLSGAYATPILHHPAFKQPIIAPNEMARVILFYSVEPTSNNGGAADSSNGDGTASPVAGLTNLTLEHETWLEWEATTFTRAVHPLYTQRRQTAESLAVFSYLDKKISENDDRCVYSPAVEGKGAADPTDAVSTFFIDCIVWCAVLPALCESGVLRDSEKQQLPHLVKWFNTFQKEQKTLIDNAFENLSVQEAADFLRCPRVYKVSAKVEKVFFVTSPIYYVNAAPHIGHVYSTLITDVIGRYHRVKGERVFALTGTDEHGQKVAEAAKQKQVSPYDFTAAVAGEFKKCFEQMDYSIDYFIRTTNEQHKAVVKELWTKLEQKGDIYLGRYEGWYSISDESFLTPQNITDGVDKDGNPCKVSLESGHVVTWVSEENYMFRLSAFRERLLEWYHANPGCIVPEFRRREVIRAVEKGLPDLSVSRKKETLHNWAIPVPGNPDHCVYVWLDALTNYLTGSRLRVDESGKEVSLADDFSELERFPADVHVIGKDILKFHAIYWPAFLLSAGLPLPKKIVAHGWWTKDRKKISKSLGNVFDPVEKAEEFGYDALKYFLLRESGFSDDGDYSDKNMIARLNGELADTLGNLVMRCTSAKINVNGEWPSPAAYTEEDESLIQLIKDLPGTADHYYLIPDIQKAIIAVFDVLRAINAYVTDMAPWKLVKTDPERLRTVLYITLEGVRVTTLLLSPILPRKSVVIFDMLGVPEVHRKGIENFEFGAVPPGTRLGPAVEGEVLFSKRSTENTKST

[16] = molecular target: T3, Methionyl-tRNA synthetase, putative; type: functional, Trypanosoma brucei brucei strain 927/4 GUTat10.1; remark: listed apart in the source
[17] = Counterscreen for inhibitors of Trypanosoma brucei methionyl tRNA synthetase (MetRS): Luminescence-based cell-based high throughput dose response assay to identify compounds that are cytotoxic to Jurkat human T lymphocyte cells.; type: functional
cells [18] = assay: cells; remark: listed apart in the source
Major prion protein = Major prion protein (Homo sapiens, UniProt P04156); type: functional, cell-based
[19] = molecular target: Nucleotide-binding oligomerization domain-containing protein 2 (Homo sapiens, UniProt Q9HC29); assay: inhibition of NOD2-driven NF-kB reporter – cell-based, luminescence, uHTS, HEK293 (AID 1566); type: functional
HEK293 [20] = assay: cells; type: functional, cell-based; conditions: Homo sapiens
Paired box protein Pax-8 = Paired box protein Pax-8 (Homo sapiens, UniProt Q06710); assay: PAX8 transcriptional activity inhibition in RMG-I – RMG-I cells, luciferase, cherry-pick, dose response (AID 687027); type: functional, cell-based;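 further: luciferase reporter driven by Pax8 target thyroperoxidase promoter measured by SteadyGlo luminescence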
HEK293 [21] = assay: NOD2 signaling inhibitors in MDP-stimulated cells, cell-based, uHTS, luminescence (AID 2001); type: functional; conditions: Homo sapiens
HEK293 [22] = assay: inhibition of NOD1-driven NF-kB reporter – cell-based, luminescence, uHTS, primary screen (AID 1578); type: functional; conditions: Homo sapiens
Protein skinhead-1 = molecular target: T4, Protein skinhead-1 (Caenorhabditis elegans, UniProt P34707); type: functional
T4 sequence (P34707 whole entry): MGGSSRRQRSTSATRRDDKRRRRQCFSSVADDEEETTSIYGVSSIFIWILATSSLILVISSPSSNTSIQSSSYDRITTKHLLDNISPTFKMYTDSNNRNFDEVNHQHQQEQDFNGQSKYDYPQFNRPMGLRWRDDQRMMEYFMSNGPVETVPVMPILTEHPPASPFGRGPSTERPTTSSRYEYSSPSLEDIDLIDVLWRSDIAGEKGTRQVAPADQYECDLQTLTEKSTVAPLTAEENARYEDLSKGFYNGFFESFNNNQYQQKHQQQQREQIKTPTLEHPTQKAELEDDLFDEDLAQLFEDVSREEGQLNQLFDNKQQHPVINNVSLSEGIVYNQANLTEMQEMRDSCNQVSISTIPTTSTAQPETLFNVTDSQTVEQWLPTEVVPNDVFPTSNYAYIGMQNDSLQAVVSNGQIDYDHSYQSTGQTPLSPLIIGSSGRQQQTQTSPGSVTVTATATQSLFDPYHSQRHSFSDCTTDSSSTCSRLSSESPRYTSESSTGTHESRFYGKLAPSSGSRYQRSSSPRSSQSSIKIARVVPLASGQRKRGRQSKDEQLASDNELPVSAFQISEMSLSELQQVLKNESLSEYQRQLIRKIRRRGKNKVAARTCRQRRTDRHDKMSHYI

HEK293 [23] = assay: cells; type: functional, cell-based; conditions: Homo sapiens; remark: listed apart in the source
HEK293 [24] = assay: cells; type: functional, cell-based; conditions: Homo sapiens; remark: listed apart in the source
[25] = general cell-killing toxicity readout – plate reader, dry powder samples, cytotoxicity control for PAX8 inhibitor project, dose response (AID 743021); type: functional, cell-based
[26] = molecular target: T5, Heat shock factor protein 1 (Mus musculus, UniProt P38532); assay: decrease of HSF1-responsive luciferase luminescence – cell-based, NIH3T3, dose retest, confirmation (AID 2382); type: functional;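 further: NIH3T3 fibroblasts with HSF1-driven luciferase reporter stressed by proteasome inhibitor MG132; luminescence from HSF1-driven luciferase expression after 8 hours of MG132 stress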
T5 sequence (P38532 whole entry): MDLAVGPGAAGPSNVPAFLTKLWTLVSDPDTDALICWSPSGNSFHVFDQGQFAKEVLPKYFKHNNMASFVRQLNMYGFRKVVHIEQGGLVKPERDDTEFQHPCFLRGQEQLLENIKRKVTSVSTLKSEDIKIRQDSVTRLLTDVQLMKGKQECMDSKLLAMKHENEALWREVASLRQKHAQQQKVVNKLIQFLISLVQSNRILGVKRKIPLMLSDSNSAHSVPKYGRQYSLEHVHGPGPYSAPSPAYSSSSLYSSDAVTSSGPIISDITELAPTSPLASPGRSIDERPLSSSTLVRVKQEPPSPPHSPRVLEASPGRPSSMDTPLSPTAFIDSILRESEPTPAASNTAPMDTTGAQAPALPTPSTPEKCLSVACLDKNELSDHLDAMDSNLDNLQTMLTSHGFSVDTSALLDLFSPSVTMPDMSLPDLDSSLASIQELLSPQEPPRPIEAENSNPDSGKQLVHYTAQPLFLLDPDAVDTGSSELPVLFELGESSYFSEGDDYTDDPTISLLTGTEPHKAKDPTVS

[27] = molecular target: Fructose-bisphosphate aldolase (Mycobacterium tuberculosis, UniProt P9WQA3); assay: Fluorescence-based biochemical high throughput dose response assay for inhibitors of the fructose-bisphosphate aldolase (FBA) of M. tuberculosis.; type: functional

With `CN(C)/C=N/C(=S)Nc1ccc(Cl)cc1` the EC50 [1] was > 67.5 µM (inactive).
In the case of `Cc1c(O)ccc(/C(Cc2ccc3ccccc3n2)=N\O)c1O`, the IC50 [2] is reported as 62.1 µM (active) and the CC50 [3] is reported as 100 µM (active).
Work on `Cc1noc(C)c1S(=O)(=O)Nc1ccc2c(c1)C(=O)N([C@@H](C)CO)C[C@@H](C)[C@H](CN(C)Cc1ccc(C(F)(F)F)cc1)OCCCC[C@H](C)O2` yielded an AbsAC35 [4] of 151.31 µM.
For `COc1ccc(OC)c(S(=O)(=O)N2CCN(c3c(C)cccc3C)CC2)c1`, the AC50 (A549) was 20.8 µM (active) and the IC50 [5] was > 64 µM (inactive).
For `Cc1csc(NC(=O)c2cn3ccccc3n2)n1`, the EC50 [6] was 8.32 µM (active), the AC50 [7] was 2.16 µM (active) and the AC50 [8] was 47.2 µM (active). For the same compound, the AC50 [9] was > 52 µM (inactive), the AC50 [10] was > 52 µM (inactive) and the EC50 [11] was 4.85 µM (active). The AC50 [12] was 1.92 µM (active).
With `COc1cc(C(S)=NCc2ccccc2)cc(Br)c1O` the AC50 [13] was 53.6 µM (active).
With `COc1cccc2c(=O)c3c(cnn3C)n(C)c12` the AC50 (cells [14]) was 2.16 µM (active).
With `COc1ccc(CCN2C(=S)N(C)C(=O)C2CC(=O)Nc2ccc(F)cc2)cc1` (stereo unspecified) the IC50 [15] was 6.54 µM (active), the IC50 [16] was 2.69 µM (active) and the IC50 [17] was 32.7 µM (inactive).
In the case of `CCOC(=O)c1ccc(NC(S)=NNC(=O)C2(C)CC2(Cl)Cl)cc1` (stereo unspecified), the AC50 [13] is reported as 13.8 µM (active).
In the case of `COc1ccc(NC(=O)CCSc2ccc3ccccc3n2)cc1`, the IC50 (cells [18]) is reported as > 138 µM (inactive) and the IC50 (Major prion protein) is reported as 4.52 µM (active).
With `CC(C)c1ccc(-c2nc3ccccc3s2)cc1` the EC50 [19] was 0.02 µM (active), the IC50 (HEK293 [20]) was > 20 µM (inactive) and the AC50 (Paired box protein Pax-8) was 5.31 µM (active). For the same compound, the IC50 (HEK293 [21]) was 3.21 µM (active), the AC50 [7] was 0.133 µM (active) and the AC50 [8] was 34 µM (active). For the same compound, the EC50 (HEK293 [22]) was 4.67 µM (active), the AC50 [9] was > 52 µM (inactive) and the IC50 (Protein skinhead-1) was 75.6 µM (inactive). For the same compound, the IC50 (HEK293 [23]) was > 20 µM (inactive), the IC50 (HEK293 [24]) was 0.478 µM (active) and the AC50 [10] was 22.8 µM (active). The AC50 [12] was < 0.068 µM (active), the AC50 [25] was 7.87 µM (active) and the EC50 [26] was < 0.16 µM (active).
In the case of `CCN1C(=O)C(CC(=O)Nc2ccc(OC)cc2)N(CCc2ccc(OC)cc2)C1=S` (stereo unspecified), the IC50 [15] is reported as 13.1 µM (inactive), the IC50 [16] is reported as 5.11 µM (active) and the IC50 [17] is reported as 52.4 µM (inactive).
With `Cc1cc(OCC(=O)NCCc2ccc(S(N)(=O)=O)cc2)c2c(C)c(C)c(=O)oc2c1` the IC50 [27] was 1.1 µM (active).
With `O=C(CC(=O)c1cccs1)c1ccncc1` the EC50 [1] was > 67.5 µM (inactive).
